In BindingDB's records for patent US8575203 (Boehringer Ingelheim International, 2013):

Target: T1, 3-phosphoinositide-dependent protein kinase 1 (Homo sapiens, UniProt O15530)
T1 sequence (O15530 whole entry): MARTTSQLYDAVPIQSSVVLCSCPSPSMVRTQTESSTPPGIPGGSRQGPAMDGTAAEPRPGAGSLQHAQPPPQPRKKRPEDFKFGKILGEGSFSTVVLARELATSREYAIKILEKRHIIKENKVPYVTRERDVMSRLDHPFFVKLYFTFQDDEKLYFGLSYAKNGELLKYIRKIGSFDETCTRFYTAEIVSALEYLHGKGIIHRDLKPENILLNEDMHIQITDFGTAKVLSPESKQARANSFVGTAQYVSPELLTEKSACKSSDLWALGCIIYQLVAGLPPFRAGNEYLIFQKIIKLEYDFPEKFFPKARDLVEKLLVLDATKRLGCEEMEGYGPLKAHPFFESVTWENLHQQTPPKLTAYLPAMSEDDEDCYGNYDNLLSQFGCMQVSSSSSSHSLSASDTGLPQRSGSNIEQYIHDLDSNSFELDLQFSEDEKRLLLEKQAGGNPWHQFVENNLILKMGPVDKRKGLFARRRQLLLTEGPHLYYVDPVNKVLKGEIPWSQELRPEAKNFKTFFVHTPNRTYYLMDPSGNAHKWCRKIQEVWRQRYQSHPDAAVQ
Experiment: Kinase Assay
Procedure: The activity of the compounds according to the invention on the kinase PDK1 which inhibits the signal transduction pathway is determined in an in vitro kinase assay with recombinantly prepared protein.

Structure (SMILES): CN(C)C(=O)c1cnc2ccc(C#CCNC(=O)c3cncn(Cc4ccc(F)c(F)c4)c3=O)cc2n1 [US8575203, II-70]
- IC50: 185 nM
